Experimental data: article PMC11823630, “In vitro potentiation of tetracyclines in Pseudomonas aeruginosa by RW01, a new cyclic peptide” (Antimicrobial Agents and Chemotherapy, 2024)
Where two headings read alike, the source gives them in different places.

Legend:
Experiment in all cases: MIC, CLSI broth microdilution in BD Phoenix AST Broth
Assay type in all cases: cell-based, Pseudomonas aeruginosa
P. aeruginosa 125A = details: strain 125A
P. aeruginosa 41B = details: strain 41B
P. aeruginosa PAOΔoprM = tested on: P. aeruginosa PAOΔoprM
P. aeruginosa PAOΔmexR = tested on: P. aeruginosa PAOΔmexR
P. aeruginosa 125B = details: strain 125B
P. aeruginosa PAOUW∆oprF = tested on: P. aeruginosa PAOUW∆oprF
P. aeruginosa 41A = details: strain 41A
P. aeruginosa PAOΔmexZ = details: strain PAOΔmexZ
P. aeruginosa PAOUW = details: strain PAOUW; for MIC: agent alone, 37°C, 18–22 h, three biological replicates
P. aeruginosa PAO1 = details: for MIC: agent alone, 37°C, 18–22 h, three biological replicates
[1] = Pseudomonas aeruginosa, agent alone, 37°C, 18–22 h, three biological replicates
[2] = MIC of the antibiotic with fixed 100 mg/L RW01
[3] = antibiotic MIC alone vs with RW01 100 mg/L
[4] = antibiotic with RW01 at 100 mg/L
[5] = strain PAOΔoprM, antibiotic with RW01 at 100 mg/L
[6] = strain PAOΔmexR, antibiotic with RW01 at 100 mg/L
[7] = strain PAOUWΔoprF (printed PAOΔoprF), antibiotic with RW01 at 100 mg/L
[8] = strain PAO1, antibiotic with RW01 at 100 mg/L

Which results are given for `CN(C)c1ccc(O)c2c1C[C@H]1C[C@H]3[C@H](N(C)C)C(O)=C(C(N)=O)C(=O)[C@@]3(O)C(O)=C1C2=O` [Minocycline, minocycline]?
MIC (P. aeruginosa 125A; [1]): 8 µg/mL; Antibiotic MIC + RW01 100 mg/L (P. aeruginosa 125A; [2]): 1 µg/mL; Potentiation (fold) (P. aeruginosa 125A; [3]): 8 fold; FICI (P. aeruginosa 125A; [4]): 0.320; FICI-determined effect (P. aeruginosa 125A; [4]): Synergy (synergistic effect if FICI is ≤0.5); MIC (P. aeruginosa 41B; [1]): 16 µg/mL; Potentiation (fold) (P. aeruginosa 41B; [3]): 8 fold; FICI (P. aeruginosa 41B; [4]): 0.223; FICI-determined effect (P. aeruginosa 41B; [4]): Synergy (synergistic effect if FICI is ≤0.5); MIC (P. aeruginosa PAOΔoprM; Pseudomonas aeruginosa): 2 µg/mL; Antibiotic MIC + RW01 100 mg/L (P. aeruginosa PAOΔoprM; strain PAOΔoprM, MIC of the antibiotic with fixed 100 mg/L RW01): 0.5 µg/mL; Potentiation (fold) (P. aeruginosa PAOΔoprM; strain PAOΔoprM, antibiotic MIC alone vs with RW01 100 mg/L): 4 fold; FICI (P. aeruginosa PAOΔoprM; [5]): 0.348; FICI-determined effect (P. aeruginosa PAOΔoprM; [5]): Synergy (synergistic effect if FICI is ≤0.5); MIC (P. aeruginosa PAOΔmexR; Pseudomonas aeruginosa): 8 µg/mL; Antibiotic MIC + RW01 100 mg/L (P. aeruginosa PAOΔmexR; strain PAOΔmexR, MIC of the antibiotic with fixed 100 mg/L RW01): 1 µg/mL; Potentiation (fold) (P. aeruginosa PAOΔmexR; strain PAOΔmexR, antibiotic MIC alone vs with RW01 100 mg/L): 8 fold; FICI (P. aeruginosa PAOΔmexR; [6]): 0.223; FICI-determined effect (P. aeruginosa PAOΔmexR; [6]): Synergy (synergistic effect if FICI is ≤0.5); MIC (P. aeruginosa 125B; [1]): 8 µg/mL; Antibiotic MIC + RW01 100 mg/L (P. aeruginosa 125B; [2]): 1 µg/mL; Potentiation (fold) (P. aeruginosa 125B; [3]): 8 fold; FICI (P. aeruginosa 125B; [4]): 0.320; FICI-determined effect (P. aeruginosa 125B; [4]): Synergy (synergistic effect if FICI is ≤0.5); MIC (P. aeruginosa PAOUW∆oprF; Pseudomonas aeruginosa, strain PAOUWΔoprF, agent alone, 37°C, 18–22 h, three biological replicates): 8 µg/mL; Potentiation (fold) (P. aeruginosa PAOUW∆oprF; strain PAOUWΔoprF (printed PAOΔoprF), antibiotic MIC alone vs with RW01 100 mg/L): 8 fold; FICI (P. aeruginosa PAOUW∆oprF; [7]): 0.223; FICI-determined effect (P. aeruginosa PAOUW∆oprF; [7]): Synergy (synergistic effect if FICI is ≤0.5); Antibiotic MIC + RW01 100 mg/L (P. aeruginosa PAOUW∆oprF; strain PAOUWΔoprF, MIC of the antibiotic with fixed 100 mg/L RW01): 1 µg/mL; MIC (P. aeruginosa 41A; [1]): 8 µg/mL; Antibiotic MIC + RW01 100 mg/L (P. aeruginosa 41A; [2]): 2 µg/mL; Potentiation (fold) (P. aeruginosa 41A; [3]): 4 fold; FICI (P. aeruginosa 41A; [4]): 0.348; FICI-determined effect (P. aeruginosa 41A; [4]): Synergy (synergistic effect if FICI is ≤0.5); MIC (P. aeruginosa PAOΔmexZ; [1]): 8 µg/mL; Antibiotic MIC + RW01 100 mg/L (P. aeruginosa PAOΔmexZ; [2]): 1 µg/mL; FICI (P. aeruginosa PAOΔmexZ; [4]): 0.160; FICI-determined effect (P. aeruginosa PAOΔmexZ; [4]): Synergy (synergistic effect if FICI is ≤0.5); MIC (P. aeruginosa PAOUW; Pseudomonas aeruginosa, read-out: MIC): 16 µg/mL; MIC (P. aeruginosa PAOUW): 8 µg/mL; Potentiation (fold) (P. aeruginosa PAOUW; [3]): 8 fold; FICI (P. aeruginosa PAOUW; [4]): 0.223; FICI-determined effect (P. aeruginosa PAOUW; [4]): Synergy (synergistic effect if FICI is ≤0.5); MIC (P. aeruginosa PAO1; Pseudomonas aeruginosa, PAO1, strain PAO1, read-out: MIC): 8 to 16 µg/mL; Antibiotic MIC + RW01 100 mg/L (P. aeruginosa PAO1; strain PAO1, MIC of the antibiotic with fixed 100 mg/L RW01): 2 µg/mL; MIC (P. aeruginosa PAO1; strain PAO1): 8 µg/mL; Potentiation (fold) (P. aeruginosa PAO1; strain PAO1, antibiotic MIC alone vs with RW01 100 mg/L): 4 fold; FICI (P. aeruginosa PAO1; [8]): 0.445; FICI-determined effect (P. aeruginosa PAO1; [8]): Synergy (synergistic effect if FICI is ≤0.5)
